Measured values as given in ChEMBL document CHEMBL1201862, “PubChem BioAssay data set” (2004).
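How tested: cells in 96-well plates exposed to compound for 48 hours at five concentrations. GI50 marks 50% less growth.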 Calls of active or inactive are those of the source. Rule as the data show it: active = GI50 up to about 1.1 µM and inactive = higher.

Assays:
Assay in all cases: growth of human tumour cells (NCI), 48 h
786-0 = test system: 786-0
A498 = test system: A498
BT-549 = test system: BT-549
COLO 205 = test system: COLO 205
DU-145 = test system: DU-145
HCT-116 = test system: HCT-116
HOP-92 = test system: HOP-92
K562 = test system: K562
LOX IMVI = test system: LOX IMVI
MCF7 = test system: MCF7
MDA-N = test system: MDA-N
NCI-H460 = test system: NCI-H460
OVCAR-4 = test system: OVCAR-4
SK-MEL-2 = test system: SK-MEL-2
SK-MEL-5 = test system: SK-MEL-5
SN12C = test system: SN12C
SNB-75 = test system: SNB-75
TK-10 = test system: TK-10
UACC-257 = test system: UACC-257
HT-29 = test system: HT-29

CCOC(=O)c1c(N2CCCC2)[nH]c(=O)c(C(c2ccc(OC)cc2)c2c(O)c(C(=O)OCC)c(N3CCCC3)[nH]c2=O)c1O
GI50 (786-0): > 100 µM (inactive)
GI50 (A498): > 100 µM (inactive)
GI50 (BT-549): 76 µM (inactive)
GI50 (COLO 205): > 100 µM (inactive)
GI50 (DU-145): > 100 µM (inactive)
GI50 (HCT-116): > 100 µM (inactive)
GI50 (HOP-92): 12.3 µM (inactive)
GI50 (K562): > 100 µM (inactive)
GI50 (LOX IMVI): > 100 µM (inactive)
GI50 (MCF7): > 100 µM (inactive)
GI50 (MDA-N): > 100 µM (inactive)
GI50 (NCI-H460): > 100 µM (inactive)
GI50 (OVCAR-4): > 100 µM (inactive)
GI50 (SK-MEL-2): 5 µM (inactive)
GI50 (SK-MEL-5): > 100 µM (inactive)
GI50 (SN12C): > 100 µM (inactive)
GI50 (SNB-75): 21.3 µM (inactive)
GI50 (TK-10): 42.8 µM (inactive)
GI50 (UACC-257): > 100 µM (inactive)

CC(=O)O[C@H]1CC[C@@]2(C)C(=CC[C@@H]3[C@@H]2CC[C@]2(C)c4nc(N)c(C#N)cc4C[C@@H]32)C1
GI50 (786-0): 28.7 µM (inactive)
GI50 (A498): > 67.6 µM (inactive)
GI50 (BT-549): 33.3 µM (inactive)
GI50 (COLO 205): 20.2 µM (inactive)
GI50 (DU-145): 40.7 µM (inactive)
GI50 (HCT-116): 18.2 µM (inactive)
GI50 (HOP-92): 33 µM (inactive)
GI50 (HT-29): 9.82 µM (inactive)
GI50 (K562): 15.8 µM (inactive)
GI50 (LOX IMVI): 32.2 µM (inactive)
GI50 (MCF7): 33.6 µM (inactive)
GI50 (MDA-N): 29 µM (inactive)
GI50 (NCI-H460): 19.8 µM (inactive)
GI50 (OVCAR-4): 19.9 µM (inactive)
GI50 (SK-MEL-2): 35.9 µM (inactive)
GI50 (SK-MEL-5): 12.8 µM (inactive)
GI50 (SN12C): 36.9 µM (inactive)
GI50 (SNB-75): 7.96 µM (inactive)
GI50 (TK-10): 27.2 µM (inactive)
GI50 (UACC-257): 27.2 µM (inactive)

CCOC(=O)CCC(C(=O)OCC)n1nc2ccc(Nc3c(C)[n+]([O-])c4cc(Cl)ccc4[n+]3[O-])cc2n1 (stereo not drawn)
GI50 (786-0): 83.9 µM (inactive)
GI50 (A498): > 100 µM (inactive)
GI50 (BT-549): > 100 µM (inactive)
GI50 (COLO 205): 75.7 µM (inactive)
GI50 (DU-145): > 100 µM (inactive)
GI50 (HCT-116): 30.1 µM (inactive)
GI50 (HOP-92): 27 µM (inactive)
GI50 (HT-29): 64.9 µM (inactive)
GI50 (K562): 82 µM (inactive)
GI50 (LOX IMVI): 58.3 µM (inactive)
GI50 (MCF7): 38.2 µM (inactive)
GI50 (MDA-N): 98.4 µM (inactive)
GI50 (NCI-H460): 24.3 µM (inactive)
GI50 (OVCAR-4): 65.8 µM (inactive)
GI50 (SK-MEL-2): 96.2 µM (inactive)
GI50 (SK-MEL-5): 75 µM (inactive)
GI50 (SN12C): 73.3 µM (inactive)
GI50 (SNB-75): > 100 µM (inactive)
GI50 (TK-10): > 100 µM (inactive)
GI50 (UACC-257): 94.4 µM (inactive)

c1ccc([P+](CCCCCCCC[P+](c2ccccc2)(c2ccccc2)c2ccccc2)(c2ccccc2)c2ccccc2)cc1
GI50 (786-0): 16.6 µM (inactive)
GI50 (A498): > 31.8 µM (inactive)
GI50 (BT-549): 1.99 µM (inactive)
GI50 (COLO 205): 0.91 µM (active)
GI50 (DU-145): 30 µM (inactive)
GI50 (HCT-116): 1.87 µM (inactive)
GI50 (HOP-92): 3.07 µM (inactive)
GI50 (HT-29): 2.04 µM (inactive)
GI50 (K562): 3.6 µM (inactive)
GI50 (LOX IMVI): 4.2 µM (inactive)
GI50 (MCF7): 4.48 µM (inactive)
GI50 (MDA-N): 6.89 µM (inactive)
GI50 (NCI-H460): 3.25 µM (inactive)
GI50 (OVCAR-4): 6.04 µM (inactive)
GI50 (SK-MEL-2): 5.69 µM (inactive)
GI50 (SK-MEL-5): 8.05 µM (inactive)
GI50 (SN12C): 3.73 µM (inactive)
GI50 (SNB-75): 0.307 µM (active)
GI50 (TK-10): 18 µM (inactive)
GI50 (UACC-257): 0.92 µM (active)

CN(N)/N=N/c1[nH]cnc1C(N)=O
GI50 (786-0): 12.1 µM (inactive)
GI50 (A498): 39.1 µM (inactive)
GI50 (BT-549): 42.2 µM (inactive)
GI50 (COLO 205): 17.5 µM (inactive)
GI50 (DU-145): 5.57 µM (inactive)
GI50 (HCT-116): 9.12 µM (inactive)
GI50 (HOP-92): 17.5 µM (inactive)
GI50 (HT-29): 99.8 µM (inactive)
GI50 (K562): 1.92 µM (inactive)
GI50 (LOX IMVI): 1.65 µM (inactive)
GI50 (MCF7): 48.4 µM (inactive)
GI50 (MDA-N): 13.4 µM (inactive)
GI50 (NCI-H460): 13.2 µM (inactive)
GI50 (OVCAR-4): 3.53 µM (inactive)
GI50 (SK-MEL-2): 4.79 µM (inactive)
GI50 (SK-MEL-5): 37.7 µM (inactive)
GI50 (SN12C): 4.82 µM (inactive)
GI50 (SNB-75): 4.66 µM (inactive)
GI50 (TK-10): 7.67 µM (inactive)
GI50 (UACC-257): 54.2 µM (inactive)

CNC(=O)N(CCC#N)CCN(C(=O)N(C)C)c1ccccc1
GI50 (786-0): > 100 µM (inactive)
GI50 (A498): > 100 µM (inactive)
GI50 (BT-549): > 100 µM (inactive)
GI50 (COLO 205): > 100 µM (inactive)
GI50 (DU-145): > 100 µM (inactive)
GI50 (HCT-116): > 100 µM (inactive)
GI50 (HOP-92): > 100 µM (inactive)
GI50 (HT-29): > 100 µM (inactive)
GI50 (K562): > 100 µM (inactive)
GI50 (LOX IMVI): > 100 µM (inactive)
GI50 (MCF7): > 100 µM (inactive)
GI50 (MDA-N): > 100 µM (inactive)
GI50 (NCI-H460): > 100 µM (inactive)
GI50 (OVCAR-4): > 100 µM (inactive)
GI50 (SK-MEL-2): > 100 µM (inactive)
GI50 (SK-MEL-5): > 100 µM (inactive)
GI50 (SN12C): > 100 µM (inactive)
GI50 (SNB-75): > 100 µM (inactive)
GI50 (TK-10): > 100 µM (inactive)
GI50 (UACC-257): > 100 µM (inactive)

COc1ccc(N2C(=O)/C(=C/c3ccc(N(CCC#N)CCC#N)cc3C)N=C2c2cc([N+](=O)[O-])ccc2Cl)cc1
GI50 (786-0): 4.43 µM (inactive)
GI50 (A498): 5.41 µM (inactive)
GI50 (BT-549): 53.2 µM (inactive)
GI50 (COLO 205): 4.34 µM (inactive)
GI50 (DU-145): 6.34 µM (inactive)
GI50 (HCT-116): 3.94 µM (inactive)
GI50 (HOP-92): > 31.7 µM (inactive)
GI50 (HT-29): 4.07 µM (inactive)
GI50 (K562): 2.62 µM (inactive)
GI50 (LOX IMVI): 6.43 µM (inactive)
GI50 (MCF7): 4.81 µM (inactive)
GI50 (MDA-N): 1.56 µM (inactive)
GI50 (NCI-H460): 4.5 µM (inactive)
GI50 (OVCAR-4): > 46.5 µM (inactive)
GI50 (SK-MEL-2): 6.15 µM (inactive)
GI50 (SK-MEL-5): 5.43 µM (inactive)
GI50 (SN12C): 6.31 µM (inactive)
GI50 (SNB-75): 3.3 µM (inactive)
GI50 (TK-10): 21.6 µM (inactive)
GI50 (UACC-257): 46.3 µM (inactive)

CC1=C(C(=O)NCCCN(CCO)CCO)CC(C(=O)NCCCN(CCO)CCO)=C(C)N1
GI50 (786-0): > 100 µM (inactive)
GI50 (A498): 27.4 µM (inactive)
GI50 (BT-549): > 100 µM (inactive)
GI50 (COLO 205): > 100 µM (inactive)
GI50 (DU-145): > 100 µM (inactive)
GI50 (HCT-116): > 100 µM (inactive)
GI50 (HOP-92): 54.6 µM (inactive)
GI50 (HT-29): > 100 µM (inactive)
GI50 (K562): > 100 µM (inactive)
GI50 (LOX IMVI): > 100 µM (inactive)
GI50 (MCF7): > 100 µM (inactive)
GI50 (MDA-N): 86.1 µM (inactive)
GI50 (NCI-H460): > 100 µM (inactive)
GI50 (OVCAR-4): > 100 µM (inactive)
GI50 (SK-MEL-2): > 100 µM (inactive)
GI50 (SK-MEL-5): 22.2 µM (inactive)
GI50 (SN12C): > 100 µM (inactive)
GI50 (SNB-75): 15.2 µM (inactive)
GI50 (TK-10): > 100 µM (inactive)
GI50 (UACC-257): > 100 µM (inactive)

COc1ccc(Cc2nc3cc(C(F)(F)F)ccc3n2C[C@@H]2CCCN3CCCCC23)cc1 (stereo partly drawn)
GI50 (786-0): 5.55 µM (inactive)
GI50 (A498): 4.4 µM (inactive)
GI50 (BT-549): 13.8 µM (inactive)
GI50 (COLO 205): 5.36 µM (inactive)
GI50 (DU-145): 11 µM (inactive)
GI50 (HCT-116): 5.58 µM (inactive)
GI50 (HOP-92): 5.62 µM (inactive)
GI50 (HT-29): 5.06 µM (inactive)
GI50 (K562): 13.7 µM (inactive)
GI50 (LOX IMVI): 10.5 µM (inactive)
GI50 (MCF7): 8.34 µM (inactive)
GI50 (MDA-N): 4.59 µM (inactive)
GI50 (NCI-H460): 13.6 µM (inactive)
GI50 (OVCAR-4): 11.7 µM (inactive)
GI50 (SK-MEL-2): 15.6 µM (inactive)
GI50 (SK-MEL-5): 6.92 µM (inactive)
GI50 (SN12C): 7.31 µM (inactive)
GI50 (SNB-75): 27.4 µM (inactive)
GI50 (TK-10): 9.1 µM (inactive)
GI50 (UACC-257): 2.46 µM (inactive)

COC(=O)c1cc2c(cc1C(=O)OC)[C@@]1(C)CCCC(C)(C)C1CC2 (stereo partly drawn)
GI50 (786-0): 19.5 µM (inactive)
GI50 (A498): 15.6 µM (inactive)
GI50 (BT-549): 28.6 µM (inactive)
GI50 (DU-145): 14.1 µM (inactive)
GI50 (HCT-116): 17.9 µM (inactive)
GI50 (HOP-92): 9.91 µM (inactive)
GI50 (HT-29): 15.6 µM (inactive)
GI50 (K562): 13.8 µM (inactive)
GI50 (LOX IMVI): 18.1 µM (inactive)
GI50 (MCF7): 15 µM (inactive)
GI50 (MDA-N): 21.9 µM (inactive)
GI50 (NCI-H460): 20.3 µM (inactive)
GI50 (OVCAR-4): 22.4 µM (inactive)
GI50 (SK-MEL-2): 17.1 µM (inactive)
GI50 (SK-MEL-5): 16.2 µM (inactive)
GI50 (SN12C): 19.3 µM (inactive)
GI50 (SNB-75): 30 µM (inactive)
GI50 (TK-10): 19.5 µM (inactive)
GI50 (UACC-257): 19.5 µM (inactive)
